In ChEMBL document CHEMBL2429812, “Exploring multitarget interactions to reduce opiate withdrawal syndrome and psychiatric comorbidity” (ACS Med Chem Lett, 2013):
Calls of active or inactive are those of the source. No cut-off for these calls is given here.

Columns and labels:
[1] = target: T1, 5-hydroxytryptamine receptor 1A (Homo sapiens, UniProt P08908); assay: Binding affinity at human 5HT1A receptor
T1 sequence (P08908 whole entry): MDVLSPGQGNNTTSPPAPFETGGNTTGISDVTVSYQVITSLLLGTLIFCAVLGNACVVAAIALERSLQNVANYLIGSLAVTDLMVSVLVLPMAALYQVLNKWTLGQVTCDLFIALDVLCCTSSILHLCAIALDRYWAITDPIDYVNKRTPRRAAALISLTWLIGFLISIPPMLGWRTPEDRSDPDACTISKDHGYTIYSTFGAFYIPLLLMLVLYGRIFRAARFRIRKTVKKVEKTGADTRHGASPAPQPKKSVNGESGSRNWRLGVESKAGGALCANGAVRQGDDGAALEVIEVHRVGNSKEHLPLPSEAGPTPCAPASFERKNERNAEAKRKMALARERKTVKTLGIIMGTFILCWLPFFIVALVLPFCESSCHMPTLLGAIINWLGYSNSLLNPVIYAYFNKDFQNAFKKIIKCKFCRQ

[2] = target: T2, Alpha-2C adrenergic receptor (Homo sapiens) (UniProt P18825); assay: Agonist activity at human alpha2C AR assessed as intrinsic activity
T2 sequence (whole entry): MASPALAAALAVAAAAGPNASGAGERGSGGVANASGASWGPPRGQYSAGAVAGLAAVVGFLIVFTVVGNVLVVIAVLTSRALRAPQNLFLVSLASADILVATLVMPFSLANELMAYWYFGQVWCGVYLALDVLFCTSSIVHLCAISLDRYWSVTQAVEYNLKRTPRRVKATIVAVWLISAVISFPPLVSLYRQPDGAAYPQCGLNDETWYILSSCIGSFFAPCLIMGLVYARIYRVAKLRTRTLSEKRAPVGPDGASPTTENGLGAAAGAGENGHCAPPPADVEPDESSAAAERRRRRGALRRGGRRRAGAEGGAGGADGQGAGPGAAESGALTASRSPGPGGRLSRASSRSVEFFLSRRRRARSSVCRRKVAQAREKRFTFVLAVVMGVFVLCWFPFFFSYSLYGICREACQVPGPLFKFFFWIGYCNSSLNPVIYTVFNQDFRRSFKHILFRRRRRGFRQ

[3] = target: T3, Alpha-2B adrenergic receptor (Homo sapiens) (UniProt P18089); assay: Agonist activity at human alpha2B AR assessed as intrinsic activity
T3 sequence (whole entry): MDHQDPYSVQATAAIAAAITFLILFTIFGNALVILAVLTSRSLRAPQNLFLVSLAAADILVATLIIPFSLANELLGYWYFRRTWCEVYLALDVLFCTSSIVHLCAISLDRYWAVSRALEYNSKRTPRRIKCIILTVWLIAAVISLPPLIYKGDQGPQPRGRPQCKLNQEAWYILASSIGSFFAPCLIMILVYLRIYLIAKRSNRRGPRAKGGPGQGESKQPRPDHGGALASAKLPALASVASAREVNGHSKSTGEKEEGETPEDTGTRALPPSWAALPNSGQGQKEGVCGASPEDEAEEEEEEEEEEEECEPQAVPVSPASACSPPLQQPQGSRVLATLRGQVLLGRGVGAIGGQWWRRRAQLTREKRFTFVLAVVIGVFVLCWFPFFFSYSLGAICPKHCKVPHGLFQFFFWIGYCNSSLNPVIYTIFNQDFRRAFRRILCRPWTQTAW

[4] = Binding affinity to I2 imidazoline binding site in rat brain membrane; type: cell membranes
[5] = target: T4, Alpha-2A adrenergic receptor (Homo sapiens) (UniProt P08913); assay: Antagonist activity at human alpha2A AR
T4 sequence (whole entry): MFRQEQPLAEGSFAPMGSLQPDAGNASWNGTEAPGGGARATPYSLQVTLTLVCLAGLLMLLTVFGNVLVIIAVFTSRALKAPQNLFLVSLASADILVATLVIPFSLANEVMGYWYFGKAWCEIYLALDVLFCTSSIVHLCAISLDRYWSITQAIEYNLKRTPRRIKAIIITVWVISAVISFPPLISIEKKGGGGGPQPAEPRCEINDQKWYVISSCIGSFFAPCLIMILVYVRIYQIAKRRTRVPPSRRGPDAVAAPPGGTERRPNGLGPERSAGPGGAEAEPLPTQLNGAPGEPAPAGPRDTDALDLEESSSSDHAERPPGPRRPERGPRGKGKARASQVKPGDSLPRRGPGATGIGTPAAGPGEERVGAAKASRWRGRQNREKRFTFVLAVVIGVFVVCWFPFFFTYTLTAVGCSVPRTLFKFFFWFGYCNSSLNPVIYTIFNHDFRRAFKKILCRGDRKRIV

[6] = target: T5, Alpha-2A adrenergic receptor (Homo sapiens, UniProt P08913); assay: Binding affinity at human alpha2A AR
T5 sequence (P08913 whole entry): T4 sequence (whole entry)

[7] = target: T6, Alpha-2C adrenergic receptor (Homo sapiens, UniProt P18825); assay: Agonist activity at human alpha2C AR
T6 sequence (P18825 whole entry): T2 sequence (whole entry)

[8] = target: T7, Alpha-2B adrenergic receptor (Homo sapiens, UniProt P18089); assay: Agonist activity at human alpha2B AR
T7 sequence (P18089 whole entry): T3 sequence (whole entry)

[9] = target: T8, 5-hydroxytryptamine receptor 1A (Homo sapiens) (UniProt P08908); assay: Agonist activity at human 5HT1A receptor assessed as intrinsic activity
T8 sequence (whole entry): T1 sequence (P08908 whole entry)

[10] = target: T7, Alpha-2B adrenergic receptor; assay: Binding affinity at human alpha2B AR
[11] = target: T6, Alpha-2C adrenergic receptor; assay: Binding affinity at human alpha2C AR
Mus musculus [12] = assay: Antidepressant-like activity in mouse assessed as reduction in immobility time at 10 mg/kg, ip by forced swimming test; type: functional, organism-based; design: dose 10 mg/kg
[13] = target: T8, 5-hydroxytryptamine receptor 1A (Homo sapiens); assay: Agonist activity at human 5HT1A receptor relative to control
[14] = target: T8, 5-hydroxytryptamine receptor 1A (Homo sapiens); assay: Agonist activity at human 5HT1A receptor
Mus musculus [15] = assay: Antidepressant-like activity in mouse assessed as reduction in immobility time at 0.05 mg/kg, ip by forced swimming test; type: functional, organism-based; design: dose 0.05 mg/kg
Mus musculus [16] = assay: Antidepressant-like activity in mouse assessed as reduction in immobility time at 20 mg/kg, ip by forced swimming test; type: functional, organism-based; design: dose 20 mg/kg
Mus musculus [17] = assay: Antidepressant-like activity in mouse assessed as reduction in immobility time at 0.025 mg/kg, ip by forced swimming test; type: functional, organism-based; design: dose 0.025 mg/kg
[18] = target: T3, Alpha-2B adrenergic receptor (Homo sapiens)
Mus musculus [19] = assay: Reduction in morphine dependence expression in ip dosed mouse assessed as dosed required for decrease in expression of naloxone-precipitated withdrawal syndrome; type: functional
Mus musculus [20] = assay: Antidepressant-like activity in mouse assessed as reduction in immobility time at 5 mg/kg, ip by forced swimming test in presence of idazoxan; type: functional, organism-based; design: dose 5 mg/kg
Mus musculus [21] = assay: Antidepressant-like activity in mouse assessed as reduction in immobility time at 1 to 20 mg/kg, ip by forced swimming test; type: functional, organism-based
Mus musculus [22] = assay: Antidepressant-like activity in mouse assessed as reduction in immobility time at 5 mg/kg, ip by forced swimming test; type: functional; design: scale not given: the % may be the effect or the level left; settings: route intraperitoneal
Mus musculus [23] = assay: Reduction in morphine dependence expression in mouse assessed as decrease in expression of naloxone-precipitated withdrawal syndrome measuring somatic signs at 5 mg/kg, ip; type: functional; design: scale not given: the % may be the effect or the level left; settings: route intraperitoneal
Mus musculus [24] = assay: Antidepressant-like activity in mouse assessed as reduction in immobility time at 5 mg/kg, ip by forced swimming test in presence of WAY 100635; type: functional, organism-based; design: dose 5 mg/kg
Mus musculus [25] = assay: Reduction in morphine dependence expression in mouse assessed as decrease in expression of naloxone-precipitated withdrawal syndrome measuring jumping at 5 mg/kg, ip; type: functional; design: scale not given: the % may be the effect or the level left; settings: route intraperitoneal
Mus musculus [26] = assay: Antidepressant-like activity in ip dosed mouse assessed as dosed required for reduction in immobility time by forced swimming test; type: functional

| Structure (SMILES) | Ki [1] [nM] | Intrinsic activity [2] | Intrinsic activity [3] | pKi [4] | pKb [5] | Ki [6] [nM] | Ki [10] [nM] | Ki [11] [nM] | pD2 [14] | also measured |
| --- | --- | --- | --- | --- | --- | --- | --- | --- | --- | --- |
| CC(Oc1ccccc1Br)C1=NCCN1 (centres undefined) | 148 | 0.87 | 0.4 | < 6 | 7.04 |  |  |  |  |  |
| CCCc1ccccc1OCC1=NCCN1 | 79.4 |  |  | 8.25 | 6.28 | 49 | 550 | 490 |  | EC50 [7]: 155 nM; EC50 [8]: 2510 nM; Intrinsic activity [9]: 0.9; Activity (Mus musculus [12]): Active |
| CCCc1ccccc1OC(C)C1=NCCN1 (centres undefined) | 13.8 | 0.75 | 0.6 | < 6 | 7.05 | 50.1 | 537 | 148 | 7.08 | EC50 [7]: 25.1 nM; EC50 [8]: 5010 nM; Emax [13]: 118% |
| CC(Oc1ccccc1CC1CC1)C1=NCCN1 (centres undefined) [CYCLOMETHYLINE] |  | 0.8 | 0.7 | < 6 |  |  |  |  |  | Activity (Mus musculus [15]): Active |
| CC(Oc1ccccc1OC1CC1)C1=NCCN1 (centres undefined) | 14.8 | 0.7 | 0.6 | < 6 | 6.9 |  |  |  |  |  |
| C[C@@H](Oc1ccccc1CC1CC1)C1=NCCN1 |  | 0.75 | 0.65 |  |  |  |  |  |  |  |
| CNCCC(Oc1ccc(C(F)(F)F)cc1)c1ccccc1 (centres undefined) |  |  |  |  |  |  |  |  |  | Activity (Mus musculus [16]): Active |
| CC(Oc1ccccc1C1CC1)C1=NCCN1 (centres undefined) | 7.24 | 0.9 | 0.7 | < 6 | 7 |  |  |  | 7.24 | Activity (Mus musculus [15]): Active; Emax [13]: 92% |
| C[C@H](Oc1ccccc1C1CC1)C1=NCCN1 | 6.03 | 0.9 | 0.65 |  | 7.7 |  |  |  | 7.86 | Activity (Mus musculus [17]): Active; Emax [13]: 102% |
| C=CCc1ccccc1O[C@@H](C)C1=NCCN1 |  | 0.9 | 0.65 |  | 7.8 |  |  |  | 7.19 |  |
| C=CCc1ccccc1O[C@H](C)C1=NCCN1 |  | 0.5 |  |  | 7.4 |  |  |  | < 5 | pEC50 [18]: inactive |
| c1ccc(C2CC2)c(OCC2=NCCN2)c1 [CIRAZOLINE] | 34.7 |  |  | 8.35 | 6.4 |  |  |  |  | Intrinsic activity [9]: 0.8 |
| C=CCc1ccccc1OC(C)C1=NCCN1 (centres undefined) [ALLYPHENYLINE] |  | 0.9 |  | < 6 | 7.4 |  |  |  | 6.86 | Activity (Mus musculus [15]): Active; pEC50 [18]: inactive |
| c1ccc2oc(-c3ncc[nH]3)cc2c1 |  |  |  |  |  |  |  |  |  | Activity (Mus musculus [19]): 20 mg/kg |
| Brc1ccccc1OCC1=NCCN1 | 562 |  |  | 7.9 | 6.72 | 95.5 | 617 | 398 |  | EC50 [7]: 97.7 nM; EC50 [8]: 1260 nM; Intrinsic activity [9]: 0.88 |
| C[C@H](Oc1ccccc1CC1CC1)C1=NCCN1 |  | 0.85 | 0.7 |  |  |  |  |  |  |  |
| c1ccc(OC2CC2)c(OCC2=NCCN2)c1 | 79.4 |  |  | < 6 | 6.22 | 316 | 794 | 794 |  | EC50 [7]: 1000 nM; EC50 [8]: 3160 nM; Intrinsic activity [9]: 1 |
| C=CCc1ccccc1OCC1=NCCN1 | 70.8 |  |  | 8.88 | 6.5 | 126 | 708 | 70.8 |  | EC50 [7]: 61.7 nM; Activity (Mus musculus [20]): inactive; Activity (Mus musculus [21]): Active; Activity (Mus musculus [22]): 50%; EC50 [8]: 977 nM; Activity (Mus musculus [15]): inactive; Intrinsic activity [9]: 0.73; Activity (Mus musculus [23]): >50%; Activity (Mus musculus [24]): Active; Activity (Mus musculus [25]): >50% |
| c1ccc(OCC2=NCCN2)c(CC2CC2)c1 | 83.2 |  |  | 6.9 | 6.35 | 77.6 | 501 | 631 |  | EC50 [7]: 234 nM; EC50 [8]: 1700 nM; Intrinsic activity [9]: 0.8 |
| c1ccc2oc(C3=NCCN3)cc2c1 |  |  |  | 8.89 |  | 26900 | 26900 | 26900 |  | Activity (Mus musculus [19]): 19 mg/kg; Activity (Mus musculus [26]): 10 mg/kg |
| C[C@@H](Oc1ccccc1C1CC1)C1=NCCN1 |  | 0.5 |  |  | 6.9 |  |  |  | < 5 | Activity (Mus musculus [17]): inactive; pEC50 [18]: inactive |
